Measurements as given in the supplement of paper PMC10627819.

How the values were obtained:
S. aureus DSM 20231 [1] = assay: Bliss interaction score (quartile over a dose matrix) (fitness difference); higher = more antagonism (negative = synergy)
How it was run: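 The Bliss score subtracts expected fitness, the product of the single-drug fitness values, from observed fitness. Fitness is plate-normalised OD595 at entry into stationary phase, relative to the robust no-drug mean and capped at 1, with single-drug fitness inferred from combinations. Summaries are quartiles over technical, biological and donor/recipient replicates.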

S. pneumoniae D39V = assay: fitness (endpoint OD595 vs no drug) (fraction); higher = more growth
How it was run: (§1)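 Fitness compares growth at the stationary-phase transition with the robust mean of no-drug control wells, as a ratio of optical densities. The ratio is capped at 1. Wells of 384-well plates held 30 µl, or 55 µl for S. pneumoniae, inoculated at OD595 0.01. Readings at OD595 every 30 min for 14 h at 37 °C were corrected against the first reading.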

S. aureus Newman = assay: as above
How it was run: as §1

S. aureus DSM 20231 [2] = assay: as above
How it was run: as §1

[3] = first compound 0.078 µg/mL, partner 0.0156 µg/mL
[4] = first compound 0.078 µg/mL, partner 0.0312 µg/mL
[5] = first compound 0.078 µg/mL, partner 0.0625 µg/mL
[6] = first compound 0.156 µg/mL, partner 0.0156 µg/mL
[7] = first compound 0.156 µg/mL, partner 0.0312 µg/mL
[8] = first compound 0.156 µg/mL, partner 0.0625 µg/mL
[9] = first compound 0.312 µg/mL, partner 0.0156 µg/mL
[10] = first compound 0.312 µg/mL, partner 0.0312 µg/mL
[11] = first compound 0.312 µg/mL, partner 0.0625 µg/mL
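For Bliss interaction score (quartile over a dose matrix) in this document: first quartile when negative (synergy) and third quartile when positive (antagonism).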

CC(C)c1c(C(=O)Nc2ccccc2)c(-c2ccccc2)c(-c2ccc(F)cc2)n1CC[C@@H](O)C[C@@H](O)CC(=O)O [Atorvastatin] + COc1cc(Cc2cnc(N)nc2N)cc(OC)c1OC [Trimethoprim]
Bliss interaction score (S. aureus DSM 20231 [1]): 0.453

Cn1c(=O)c2c(ncn2C)n(C)c1=O [Caffeine] + CCC[C@@H]1C[C@@H](C(=O)N[C@@H]([C@H]2O[C@H](SC)[C@H](O)[C@@H](O)[C@H]2O)[C@@H](C)O)N(C)C1 [Lincomycin]
Bliss interaction score (S. aureus DSM 20231 [1]): -0.292

COCCOC(=O)C1=C(C)NC(C)=C(C(=O)OC/C=C/c2ccccc2)C1c1cccc([N+](=O)[O-])c1 (stereo unspecified) [Cilnidipine] + CN(C)[C@@H]1C(O)=C(C(N)=O)C(=O)[C@@]2(O)C(O)=C3C(=O)c4c(O)ccc(Cl)c4[C@@](C)(O)[C@H]3C[C@@H]12 [Clortetracycline]
Bliss interaction score (S. aureus DSM 20231 [1]): -0.323

Cc1ncc([N+](=O)[O-])n1CCO [Metronidazole] + CCCSc1nc(N[C@@H]2C[C@H]2c2ccc(F)c(F)c2)c2nnn([C@@H]3C[C@H](OCCO)[C@@H](O)[C@H]3O)c2n1 [Ticagrelor]
Bliss interaction score (S. aureus DSM 20231 [1]): 0.152

CN(C)[C@@H]1C(O)=C(C(N)=O)C(=O)[C@@]2(O)C(O)=C3C(=O)c4c(O)ccc(Cl)c4[C@@](C)(O)[C@H]3C[C@@H]12 [Clortetracycline] + Cc1c(C)c2c(c(C)c1O)CCC(C)(COc1ccc(CC3SC(=O)NC3=O)cc1)O2 [Troglitazone]
Bliss interaction score (S. aureus DSM 20231 [1]): -0.137

COCCOC(=O)C1=C(C)NC(C)=C(C(=O)OC/C=C/c2ccccc2)C1c1cccc([N+](=O)[O-])c1 (stereo unspecified) [Cilnidipine] + Clc1ccc(COC(Cn2ccnc2)c2ccc(Cl)cc2Cl)c(Cl)c1 [Miconazole]
Bliss interaction score (S. aureus DSM 20231 [1]): 0.105

CN(C)[C@@H]1C(O)=C(C(N)=O)C(=O)[C@@]2(O)C(O)=C3C(=O)c4c(O)ccc(Cl)c4[C@@](C)(O)[C@H]3C[C@@H]12 [Clortetracycline] + CC(=O)S[C@@H]1CC2=CC(=O)CC[C@]2(C)[C@H]2CC[C@@]3(C)[C@@H](CC[C@@]34CCC(=O)O4)[C@H]12 [Spironolactone]
Bliss interaction score (S. aureus DSM 20231 [1]): 0.196

O=C(O)c1cc(-c2ccc(F)cc2F)ccc1O [Diflunisal] + CC(=O)O[C@H]1C[C@@]2(C)[C@@H](C[C@@H](O)[C@H]3[C@@]4(C)CC[C@@H](O)[C@@H](C)[C@@H]4CC[C@@]32C)/C1=C(\CCC=C(C)C)C(=O)O [Fusidic acid]
Bliss interaction score (S. aureus DSM 20231 [1]): 0.199

CO/N=C(\C(=O)N[C@@H]1C(=O)N2C(C(=O)O)=C(COC(C)=O)CS[C@H]12)c1csc(N)n1 [Cefotaxime] + CO[C@@]12[C@H](COC(N)=O)C3=C(C(=O)C(C)=C(N)C3=O)N1C[C@@H]1N[C@@H]12 [Mitomycin C]
fitness (S. pneumoniae D39V; first compound 0.0018 µg/mL, partner 0.001075 µg/mL): 0.978 | fitness (S. pneumoniae D39V; first compound 0.0018 µg/mL, partner 0.002 µg/mL): 0.789 | fitness (S. pneumoniae D39V; first compound 0.0018 µg/mL, partner 0.00215 µg/mL): 0.949 | fitness (S. pneumoniae D39V; first compound 0.0018 µg/mL, partner 0.004 µg/mL): 0.81 | fitness (S. pneumoniae D39V; first compound 0.0018 µg/mL, partner 0.0043 µg/mL): 0.863 | fitness (S. pneumoniae D39V; first compound 0.0018 µg/mL, partner 0.008 µg/mL): 0.702 | fitness (S. pneumoniae D39V; first compound 0.0035 µg/mL, partner 0.001075 µg/mL): 0.976 | fitness (S. pneumoniae D39V; first compound 0.0035 µg/mL, partner 0.002 µg/mL): 0.781 | fitness (S. pneumoniae D39V; first compound 0.0035 µg/mL, partner 0.00215 µg/mL): 0.922 | fitness (S. pneumoniae D39V; first compound 0.0035 µg/mL, partner 0.004 µg/mL): 0.767 | fitness (S. pneumoniae D39V; first compound 0.0035 µg/mL, partner 0.0043 µg/mL): 0.838 | fitness (S. pneumoniae D39V; first compound 0.0035 µg/mL, partner 0.008 µg/mL): 0.647 | fitness (S. pneumoniae D39V; first compound 0.007 µg/mL, partner 0.001075 µg/mL): 0.895 | fitness (S. pneumoniae D39V; first compound 0.007 µg/mL, partner 0.002 µg/mL): 0.694 | fitness (S. pneumoniae D39V; first compound 0.007 µg/mL, partner 0.00215 µg/mL): 0.834 | fitness (S. pneumoniae D39V; first compound 0.007 µg/mL, partner 0.004 µg/mL): 0.679 | fitness (S. pneumoniae D39V; first compound 0.007 µg/mL, partner 0.0043 µg/mL): 0.802 | fitness (S. pneumoniae D39V; first compound 0.007 µg/mL, partner 0.008 µg/mL): 0.637 | fitness (S. aureus Newman; [3]): 0.577 | fitness (S. aureus Newman; [4]): 0.574 | fitness (S. aureus Newman; [5]): 0.422 | fitness (S. aureus Newman; [6]): 0.48 | fitness (S. aureus Newman; [7]): 0.414 | fitness (S. aureus Newman; [8]): 0.234 | fitness (S. aureus Newman; [9]): 0.313 | fitness (S. aureus Newman; [10]): 0.22 | fitness (S. aureus Newman; [11]): 0.138 | fitness (S. aureus Newman; first compound 0.625 µg/mL, partner 0.0156 µg/mL, one replicate): 0.0313 | fitness (S. aureus Newman; first compound 0.625 µg/mL, partner 0.0312 µg/mL, one replicate): 0.025 | fitness (S. aureus Newman; first compound 0.625 µg/mL, partner 0.0625 µg/mL, one replicate): 0.0258 | fitness (S. aureus Newman; first compound 1.25 µg/mL, partner 0.0156 µg/mL, one replicate): 0.0209 | fitness (S. aureus Newman; first compound 1.25 µg/mL, partner 0.0312 µg/mL, one replicate): 0.0017 | fitness (S. aureus Newman; first compound 1.25 µg/mL, partner 0.0625 µg/mL, one replicate): 0 | fitness (S. aureus Newman; first compound 2.5 µg/mL, partner 0.0156 µg/mL, one replicate): 0.0581 | fitness (S. aureus Newman; first compound 2.5 µg/mL, partner 0.0312 µg/mL, one replicate): 0.0229 | fitness (S. aureus Newman; first compound 2.5 µg/mL, partner 0.0625 µg/mL, one replicate): 0.0272 | fitness (S. aureus DSM 20231 [2]; first compound 0.039 µg/mL, partner 0.0156 µg/mL): 0.581 | fitness (S. aureus DSM 20231 [2]; first compound 0.039 µg/mL, partner 0.0312 µg/mL): 0.532 | fitness (S. aureus DSM 20231 [2]; first compound 0.039 µg/mL, partner 0.0625 µg/mL): 0.607 | fitness (S. aureus DSM 20231 [2]; [3]): 0.581 | fitness (S. aureus DSM 20231 [2]; [4]): 0.577 | fitness (S. aureus DSM 20231 [2]; [5]): 0.537 | fitness (S. aureus DSM 20231 [2]; [6]): 0.538 | fitness (S. aureus DSM 20231 [2]; [7]): 0.562 | fitness (S. aureus DSM 20231 [2]; [8]): 0.54 | fitness (S. aureus DSM 20231 [2]; [9]): 0.483 | fitness (S. aureus DSM 20231 [2]; [10]): 0.495 | fitness (S. aureus DSM 20231 [2]; [11]): 0.457
